Measurements: patent publication US20150351390A1, “COMPOSITIONS AND METHODS FOR AUXIN-ANALOG CONJUGATION” (PIONEER HI-BRED INTERNATIONAL, INC., priority 2012, published 2015)

Experiments:
Soybean seeds = assay: Phytotoxicity evaluation during soybean germination; type: in vivo; details: 1 μM in germination media, 10 days
Protocol: To evaluate the effect of synthetic auxin conjugates in plants, 2,4-D-Asp, 2,4-D-Glu, dicamba-Asp, and dicamba-Glu were synthesized (Irvine Chemistry Laboratory, Anaheim, Calif.) and tested for auxin effects during soybean germination.
Asp and Glu conjugates of 2,4-D and dicamba were dissolved in a small quantity of Na2CO3 and ethanol, respectively, diluted in ddH2O to obtain 10 mM stock solution, and filter sterilized. Soybean seeds of a Pioneer elite germplasm were sterilized with chlorine gas as following: a) two layers of seeds were placed in a 100×25 mm plastic Petri dish; b) in an exhaust fume hood, seeds were placed into a glass desiccator with a 250 mL beaker containing 100 mL bleach (5% NaOC1) and 3.5 mL 12N HCl was slowly added to the beaker; c) the lid was sealed closed on the desiccator and the seeds sterilized for at least 24 hr.
Sterilized soybean seeds were then imbibed in ddH2O under sterile conditions at 25° C. for 24 hours before germination test. For germination test, 6-8 imbibed seeds were placed on a 100×25 mm deep Petri dish plate containing 50 ml germination media supplemented with or without auxin herbicide conjugates. 1 L seed germination media contains 3.21 g GAMBORG B-5 basal medium (PhytoTech), 20 g sucrose, 5 g tissue culture agar, and is pH adjusted to 5.7. Media was autoclaved at 121° C. for 25 min and cooled to 60° C. before the addition of auxin conjugates. Germination was carried out in a Percival growth chamber at 25° C. under 18 hr light and 6 hr dark cycle at 90 to 150 μE/m2/s and grown for 10 days.

soybean seedlings = assay: Soybean seedling response to spot infiltrated auxins and conjugates; as to 1st trifoliate leaf curl: key: 0 = no phenotype; +/− = threshold; as to Chlorotic lesion @ app. Pnt: key: 0 = no phenotype; +/− = threshold; type: in vivo; parameters: 1st trifoliate leaf curl / Epinasty score: key: 0 = no phenotype; +/− = threshold; details: for 1st trifoliate leaf curl / Epinasty score / Chlorotic lesion @ app. Pnt: spot infiltration; for Plant response phenotype, soybean: result in words
Protocol: Conjugate forms of auxinic compounds when applied through spot infiltration, a needleless method to introduce exogenous agents into plant cells. Initially, various concentrations of analytical grade (98%+pure) IAA, 2,4-D, and dicamba were prepared as solutions that were applied directly to uni-foliate leaves of 9 day old soybean seedlings by spot infiltration in order to determine the range of auxinic response and severity.
Spot infiltration comprises applying a compound to be tested in composition that is applied to the surface of a plant, for example, to a leaf or other plant structure. For example, a method for testing a plant response to one or more compounds using spot infiltration comprises a) providing a composition comprising one or more compounds to be tested in a container having at least an opening for the compound enter and/or exit, and one or more elements for moving the composition into or out of the container; b) contacting at least one opening of the container with the surface of a plant and moving the composition comprising one or more compounds to at least the surface of the plant. A container and elements for moving the composition may comprise a syringe body and plunger. Moving the composition to the plant surface comprises contacting the surface with pressure sufficient for the composition to enter the cells of the plant. In an aspect, spot filtration testing comprises measuring an effect of the composition on the contacted plant and comparing that measure or effect to a plant that is not contacted with the composition.
Plant response phenotypes were documented at one day post-spot infiltration and subsequently every other day, up to nine days post treatment. […] In the studies described herein below, 5 replicate treatments for each conjugate form were conducted, along with appropriate negative controls.
(§1) Examples 9 and 10 utilized a spot infiltration method for the delivery of an herbicide directly to leaves of a plant. The method generally allows for the directed delivery of a variety of agents to a localized area of a plant, e.g. localized region of leaves, for screening or assessment purposes, e.g. to quickly assess the response of a plant to the agent. As used in the foregoing examples, the spot infiltration method was used to introduce specific herbicides or specific conjugates of the herbicides to seedling plant leaves. Following introduction of the herbicide or the appropriate conjugate, plants were observed daily for nine days for characteristics of epinasty, trifoliate leaf curly, chlorosis, and new growth recovery.
(§2) Briefly, a solution of the desired agent is prepared of the desired agent, e.g. as described above in Example 10, solutions (5% EtOH) of 1, 2.5 and 5 mM IAA. The solution is then drawn into a 1 mL BD™ slip-tip syringe, bulk, non-sterile syringe (e.g. Becton, Dickinson and Company, Product No. 301025) with 100 μL markings. The desired volume is then applied to the leaf, e.g. as described in Examples 9 and 10, with the tip of the syring against the leaf and positive pressure applied to the syringe plunger. Sufficient pressure is applied in order to infuse the area beneath the syringe opening, but not so much pressure as to cause a visible-to-the-eye puncture or hole to form in the leaf. Some run-off of solution around the syringe opening is expected. In the foregoing examples, two spots were applied to each of two leaves per seedling for soybean plants. […] In soybean, both spots per leaf were at the distal portion of the leaf about 1-2 cm apart. When the method was applied to Arabidopsis, two developmentally intermediate aged leaves were chosen per plant, and one spot infiltration was carried out per leaf.

[1] = system: Arabidopsis ecotype Col-0 plant; assay: Arabidopsis response to spot infiltrated auxins and conjugates; type: in vivo, Arabidopsis thaliana; details: result in words
Protocol: The effect of auxin conjugates was assessed using Arabidoposis (Arabidopsis thialiana) ecotype Col-0 plant. Prior to studies utilizing the auxin conjugates, levels of analytical grade (98%+pure) IAA, 2,4-D and dicamba in solution were applied at various concentrations directly to developmentally similar leaves of 20-23 day old Arabidopsis seedlings by needleless syringe spot infiltration methodology, in order to determine range of auxinic response and severity. Phenotypes were documented relative to control at 1 day post-spot infiltration and subsequently every other day, up to nine days post treatment. Three concentrations were chosen based on reproducibility, and conjugated forms were then studied with 4 or more replicate treatments for each, along with appropriate negative controls (H2O and 10% EtOH).
as §1, §2
Generally, for Arabidopsis, the two leaves were chosen from opposite sides of rosette. In general, the spot infiltration method is carried out on younger plants in order to minimize experimental footprint and to maintain developmental uniformity. However, the method is not limited to use on young plants and can be easily applied to older plants as determined by the goals of a particular experiment.

Structure (SMILES)	Soybean seed germination and growth (Soybean seeds)	1st trifoliate leaf curl (soybean seedlings; 100 μM)	1st trifoliate leaf curl (soybean seedlings; 250 μM)	1st trifoliate leaf curl (soybean seedlings; 500 μM)	Plant response phenotype, soybean (soybean seedlings; 100, 250 & 500 μM)	Epinasty score (soybean seedlings; 100 μM)	Epinasty score (soybean seedlings; 250 μM)	Plant response phenotype, soybean (soybean seedlings; 500 μM)	Plant response phenotype, soybean (soybean seedlings; lower concentration than 500 μM)	Chlorotic lesion @ app. Pnt (soybean seedlings; 50 μM)	Chlorotic lesion @ app. Pnt (soybean seedlings; 100 μM)	Chlorotic lesion @ app. Pnt (soybean seedlings; 250 μM)	Plant response phenotype, soybean (soybean seedlings; 50, 100 and 250 μM)	Phenotype, Arabidopsis ([1]; 50, 100 and 250 μM)	1st trifoliate leaf curl (soybean seedlings; 50 μM)	Epinasty score (soybean seedlings; 50 μM)	Phenotype, Arabidopsis ([1]; 100 and 250 μM, compared to dicamba alone)
O=C(O)C[C@H](NC(=O)COc1ccc(Cl)cc1Cl)C(=O)O [2,4-D-Asp]	seed germination and growth were normal	0	0	0	auxinic response nearly equivalent to that of 2,4-D												
O=C(O)CC[C@H](NC(=O)COc1ccc(Cl)cc1Cl)C(=O)O [2,4-D-Glu]	seed germination and growth were normal	0	0	0	distinctly lower level of severity	+/−	+/−	modest epinasty	no discernible auxinic responses								
COc1c(Cl)ccc(Cl)c1C(=O)O [dicamba, 3,6-dichloro-2-methoxybenzoic acid free acid]	seed germination was arrested									0	0	0	epinasty at day 1 and leaf curling of 1st tri-foliate	petiole epinasty and leaf curling at day one			
COc1c(Cl)ccc(Cl)c1C(=O)NC(CC(=O)O)C(=O)O (centres unmarked) [dicamba-Asp]	seed germination and growth were normal	0	0			0	0			0	0	0	phenotypes similar to that of negative control	No obvious phenotype	0	0	
COc1c(Cl)ccc(Cl)c1C(=O)NC(CCC(=O)O)C(=O)O (centres unmarked) [dicamba-Glu]	seed germination and growth were normal	0	0			0	0			0	0	0	phenotypes similar to that of negative control		0	0	modest epinasty
